Measurements taken from PMC10052977, “α,ω-Diacyl-Substituted Analogues of Natural and Unnatural Polyamines: Identification of Potent Bactericides That Selectively Target Bacterial Membranes” (International Journal of Molecular Sciences, 2023).
Like-named read-outs stand apart in the source and are kept apart here.

How the values were obtained:
[1] = test system: Staphylococcus aureus ATCC 25923 or ATCC 29213; assay: MIC, broth dilution (CA-SFM); type: cell-based
[2] = test system: MRSA ATCC 43300; assay: MIC, CO-ADD broth microdilution; type: cell-based, Staphylococcus aureus; settings: for MIC: Staphylococcus aureus, MRSA ATCC 43300, mean (n = 2), read-out: MIC MRSA
[3] = test system: Escherichia coli ATCC 25922; assay: MIC, CO-ADD broth microdilution; type: cell-based; settings: ATCC25922, mean (n = 2)
[4] = test system: Pseudomonas aeruginosa PAO1 or ATCC 27853; assay: MIC, broth dilution (CA-SFM); type: cell-based; settings: mean (n = 3)
[5] = test system: Klebsiella pneumoniae ATCC700603; assay: MIC, CO-ADD broth microdilution; type: cell-based; settings: mean (n = 2)
[6] = test system: Acinetobacter baumannii ATCC19606; assay: MIC, CO-ADD broth microdilution; type: cell-based; settings: mean (n = 2)
[7] = test system: Candida albicans ATCC90028; assay: Antifungal MIC, CO-ADD; type: cell-based; settings: mean (n = 2)
How it was run: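 Yeast from 3-day YPD cultures was diluted in YNB broth to a final 2.5 × 10^3 CFU/mL and incubated at 35 °C for 36 h without shaking. C. albicans MICs were read by OD530 absorbance. QC used fluconazole and Z'-factor controls.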

[8] = test system: Cryptococcus neoformans ATCC208821; assay: Antifungal MIC, CO-ADD; type: cell-based; settings: ATCC208821, Cryptococcus neoformans ATCC208821, mean (n = 2)
How it was run: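 Fungal strains were grown on YPD agar at 30 °C for 3 days. Five colonies were used to make a yeast suspension of 1 × 10^6 to 5 × 10^6 CFU/mL, which was diluted in yeast nitrogen base (YNB) broth to 2.5 × 10^3 CFU/mL. Covered plates were incubated without shaking at 35 °C for 36 h. Fluconazole was the positive control, and quality was judged from antimicrobial controls and the Z'-factor.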

[9] = Cytotoxicity assay (resazurin); type: cell-based, human; settings: human; HEK293 cells; mean (n = 2); highest dose tested 32 μg/mL; read-out: Cytotoxicity (concentration of compound at 50% cytotoxicity, IC50)
[10] = test system: human red blood cells; assay: Hemolytic assay; type: cell-based; settings: for Hemolysis (HC10, concentration at 10% hemolytic activity): mean (n = 2)
How it was run: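 Washed human erythrocytes at 0.5 × 10^8 cells/mL in 0.9% NaCl, shaken 10 min with compound, then held 1 h at 37 °C. Released hemoglobin in supernatant after centrifugation read at OD405; HC10 and HC50 from variable-slope sigmoidal fit against log concentration.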

[11] = test system: P. aeruginosa ATCC27853; assay: Doxycycline potentiation (MIC of antibiotic in presence of synergizing compound); type: cell-based, Pseudomonas aeruginosa; settings: doxycycline 2 μg/mL, P. aeruginosa ATCC 27853
[12] = test system: HEK293 human embryonic kidney cells; assay: Cytotoxicity assay (resazurin); type: cell-based; settings: HEK293
[13] = test system: MRSA (CF-Marseille); assay: MIC, classical microdilution; type: cell-based; settings: Staphylococcus aureus, 4.4 μM = 4 μg/mL
[14] = test system: Bacillus cereus ATCC 11778; assay: MIC, classical microdilution; type: cell-based; settings: ATCC11778, 4.4 μM = 4 μg/mL
[15] = test system: Bacillus cereus ATCC 11778; assay: Minimum bactericidal concentration test; type: cell-based; settings: ATCC11778, same value as MIC
Method: (§1) A pure culture of a specified microorganism was grown overnight, then diluted in growth-supporting broth (typically Mueller–Hinton II broth) to a concentration between 1 × 10^5 and 1 × 10^6 CFU/mL. A stock dilution of the antimicrobial test compound was created at approximately 100 times the expected previously determined MIC. Further 1:1 dilution was made in 96-well microtiter plates. All dilutions of the test compound were inoculated with equal volumes of the specified microorganism (typically 100 µL). […] An aliquot of the positive control is plated and used to establish a baseline concentration of the microorganism used. The microtiter plates were then incubated at 37 °C for 24 h. Turbidity indicates growth of the microorganism, and the MIC is the lowest concentration where no growth is visually observed. To determine the minimum bactericidal concentration (MBC), the dilution representing the MIC and at least two of the more concentrated test product dilutions are plated on a solidified agar plate to determine the bacterial viability. The MBC is the lowest concentration where no growth is encountered when compared to the MIC dilution.

[16] = test system: MRSA (CF-Marseille); assay: Minimum bactericidal concentration test; type: cell-based; settings: Staphylococcus aureus, same value as MIC
Method: as §1

[17] = test system: S. aureus ATCC 25923; assay: Minimum bactericidal concentration test; type: cell-based; settings: Staphylococcus aureus, ATCC25923, same value as MIC
Method: as §1

[18] = test system: MRSA (CF-Marseille); assay: Real-time growth curves; type: cell-based, Staphylococcus aureus
Method: (§2) Solutions of compound 15d at concentrations of 2, 4 and 16 µg/mL were tested, each in triplicate, against S. aureus ATCC 25923, MRSA (CF-Marseille) and Bacillus cereus ATCC 11778. Typically, in a 96-well plate, 10 µL of 40, 80 and 320 µg/mL stock solutions of compound 15d were placed, as well as 190 µL of a 5 × 10^5 CFU/mL of the selected bacterial suspension in brain heart infusion (BHI) broth. Positive controls containing only 200 µL of a 5 × 10^5 CFU/mL of bacterial suspension in BHI and negative controls containing only 200 µL of BHI broth were added. The plate was incubated at 37 °C in a TECAN Spark Reader (Roche Diagnostic), and real-time bacterial growth was followed by OD590 nm measurement every 10 min during 19 h.

[19] = test system: S. aureus ATCC 25923; assay: Real-time growth curves; type: cell-based, Staphylococcus aureus
Method: as §2

[20] = test system: Bacillus cereus ATCC 11778; assay: Real-time growth curves; type: cell-based; settings: B. cereus ATCC 11778
Method: as §2

[21] = test system: S. aureus ATCC 25923; assay: ATP release assay (bioluminescence); type: cell-based, Staphylococcus aureus; settings: brief exposure
Method: The mechanism of action of antibacterial activity observed for 15d was attributed to the ability to disrupt the bacterial cell membrane.
Solutions of test compound 15d were prepared in DMSO at various concentrations. A suspension of growing S. aureus to be studied in Muller–Hinton II broth was prepared and incubated at 37 °C. An aliquot (90 µL) of this suspension was added to 10 µL of test compound solution and vortexed for 10 s. Luciferin–luciferase reagent (Yelen, France; 50 µL) was immediately added to this mixture and luminescent signal quantified with an Infinite M200 microplate reader (Tecan) over a 30 min period. ATP concentration was quantified by internal sample addition. A similar procedure was used for the CTAB positive control.

[22] = Staphylococcus aureus ATCC 25923 or ATCC 29213, mean (n = 3), read-out: MIC S. a
[23] = at 4.4 μM (4 µg/mL) and 17 μM (16 µg/mL)
[24] = lowest tested concentration 2.2 μM (2 µg/mL)

MIC [1, 22] [µM]	MIC [2] [µM]	MIC [3] [µM]	MIC [4] [µM]	MIC [5] [µM]	MIC [6] [µM]	MIC [7] [µM]	MIC [8] [µM]	fold increase (antibiotic enhancement vs intrinsic MIC) [11] [fold]	SMILES	IC50 at 20 h [9] [µM]	Hemolysis (HC10, concentration at 10% hemolytic activity) [10] [µM]	cytotoxicity [12]	hemolytic properties [10]	other results
> 247	≤ 0.31	≤ 0.31	247	> 39.5	4.9	≤ 0.31	> 39.5	–	Cl.Cl.S=C(NCCCNCCCCCCCCCCNCCCNC(=S)NC(c1ccccc1)c1ccccc1)NC(c1ccccc1)c1ccccc1 [Compound 6e, N^1,N^10-Bis(3-(3-benzhydrylthioureido)propyl)decane-1,10-diaminium chloride]	> 39.5	>39.5	–	–	antibiotic enhancement of doxycycline [11]: particularly strong enhancers; melting point: 114 to 115 °C
6.25	≤ 0.26	> 32.7	> 100	> 32.7	> 32.7	> 32.7	> 32.7	–	O=C(CCC(=O)NCCCc1ccccc1)NCCCNCCCCCCCCCCCCNCCCNC(=O)CCC(=O)NCCCc1ccccc1.O=C(O)C(F)(F)F.O=C(O)C(F)(F)F [Compound 14f, N^1,N^12-Bis(3-(4-oxo-4-((3-phenylpropyl)amino)butanamido)propyl)dodecane-1,12-diaminium 2,2,2-trifluoroacetate]	> 32.7	>32.7	non-toxic	non-hemolytic	activity towards MRSA ([2]; MRSA): potent
6.25	≤ 0.3	≤ 0.3	50	> 37.8	> 37.8	> 37.8	> 37.8	4	O=C(CC(c1ccccc1)c1ccccc1)NCCCNCCCCNCCCNC(=O)CC(c1ccccc1)c1ccccc1.O=C(O)C(F)(F)F.O=C(O)C(F)(F)F [Compound 15a, N^1,N^4-Bis(3-(3,3-diphenylpropanamido)propyl)butane-1,4-diaminium 2,2,2-trifluoroacetate]	> 37.8	>37.8	–	–	–
3.13	≤ 0.28	2.2	100	> 35.4	> 35.4	> 35.4	> 35.4	–	O=C(CC(c1ccccc1)c1ccccc1)NCCCNCCCCCCCCNCCCNC(=O)CC(c1ccccc1)c1ccccc1.O=C(O)C(F)(F)F.O=C(O)C(F)(F)F [Compound 15d, N^1,N^8-Bis(3-(3,3-diphenylpropanamido)propyl)octane-1,8-diaminium 2,2,2-trifluoroacetate]	> 35.4	>35.4	no detectable	no detectable	MIC ([1]; Staphylococcus aureus, S. aureus ATCC 25923, classical microdilution, 4.4 μM = 4 μg/mL, read-out: MIC): 4.4 µM; MIC [13]: 4.4 µM; MIC [14]: 4.4 µM; MBC [15]: 4.4 µM; MBC [16]: 4.4 µM; MBC [17]: 4.4 µM; real-time growth inhibition [18, 23]: completely inhibited; time after which bacterial growth was detected [18, 24]: 4 h; real-time growth inhibition [19, 23]: completely inhibited; time after which bacterial growth was detected [19, 24]: 6 h; real-time growth inhibition [20, 23]: completely inhibited; time after which bacterial growth was detected [20, 24]: 12 h; leakage of intracellular ATP [21]: rapid dose-dependent leakage of intracellular ATP
25	≤ 0.25	> 31.5	–	> 31.5	> 31.5	> 31.5	≤ 0.28	8	O=C(CCC(=O)NCCC(c1ccccc1)c1ccccc1)NCCCNCCCCNCCCNC(=O)CCC(=O)NCCC(c1ccccc1)c1ccccc1.O=C(O)C(F)(F)F.O=C(O)C(F)(F)F [Compound 16a, N^1,N^4-Bis(3-(4-((3,3-diphenylpropyl)amino)-4-oxobutanamido)propyl)butane-1,4-diaminium 2,2,2-trifluoroacetate]	> 31.5	>31.5	–	–	MIC ([4]; 18 h): 20 µM
